Results: US20070004634A1 (Novo Nordisk A/S, priority 1998, published 2007)
No end group written: not given here.

Key:
IGF-1R = IGF-1R (Homo sapiens, UniProt P08069); assay: Phage ELISA, binding of phage clones to IGF-1R (ratio over background); settings: ratio of IGF-1R divided by ratio of IR
IR = IR (Homo sapiens, UniProt P06213); assay: Phage ELISA, binding of phage clones to IR (ratio over background); settings: ratio of IR divided by ratio of IGF-1R
Method: HIT indicates binder; CAND indicates binder candidate; LDH indicates binding to lactate dehydrogenase (negative control); Sp/Irr indicates the ratio of specific binding over non-specific binding.
Sp/Irr=the ratio of specific binding over non-specific binding; LDH=lactate dehydrogenase (negative control).
For phage pools, cells from frozen stocks were grown and phage were prepared as described above. For analysis of individual clones, colonies were picked and phage prepared as described above. Subsequent steps were the same for pooled and clonal phage. Microtiter wells were coated and blocked as described above. […] Phage resuspended in MPBS (PBS containing 2% non-fat milk) were added to wells (100 μl/well) and incubated at room temperature for 1 h. The phage solution was then removed, and the wells were washed three times with PBS at room temperature.
Anti-M13 antibody conjugated to horseradish peroxidase (Pharmacia Biotech) was diluted 1:3000 in MPBS and added to each well (100 μl/well). Incubation was for another hour at room temperature, followed by PBS washes as described. Color was developed by addition of ABTS solution (100 μl/well; Boehringer). […] Data points were averaged after subtraction of appropriate blanks. A clone was considered “positive” if the A405 of the well was ≧2-fold over background.

Row | Substance | Comparisons IGF-1R/IR (IGF-1R) | Comparisons IR/IGF-1R (IR)
1 | PVGVQGFYEGLSRLVLGRGGW [20E2B-4-F8-IGFR] | 9.7 | 0.1
2 | QAVQPGFHEEFYDWFVRQVSTGVGGG [H2CA-4-H4-IGFR] | 4.2 | 0.2
3 | QFYGCLLDLSLGVPSFGWRRRCITA [20C-3-A4-IGFR] | 7.6 | 0.1
4 | QGGSASFYDAIDRLLRMRIGG [20E2A-4-F11-IGFR] | 14.6 | 0.1
5 | QGNVLDFYGWIGRLLAKQGSD [20E2B-3-D12-IGFR] | 7.3 | 0.1
6 | QPAPDGFYSALMKLIGRGGVS [20E2B-3-C8-IGFR] | 8.9 | 0.1
7 | QPDHSYFYSLLQELVGSEERL [20E2B-4-F9-IGFR] | 7.7 | 0.1
8 | QSGSGDFYDWLSRLIRGNGDG [20E2Bβ-3-C7-IR] | 2.0 | 0.5
9 | QSPVGSSHEDFYDWFFRQVAQSGAHQ [H2CA-3-D6-IGFR] | 4.0 | 0.3
10 | RAGSSDFHEDFYEWFVRQVSLSLKGK [H2CA-2-B9-IGFR] | 4.2 | 0.2
11 | RCGRELYHSTFYDWFDRQVAGRTCPS [H2CA-1-A7-IGFR] | 3.7 | 0.3
12 | RCQGTGFYTCIQELIGFGDPD [20E2B-4-H9-IGFR] | 5.6 | 0.2
13 | RFSTDGFYQYLLALVGGGPVG [20E2B-1-A11-IGFR] | 9.7 | 0.1
14 | RGMKEEVLVGGSTDPFYHKLSELLQGS [B6Hα-3-F11-IR] | 11.7 | 0.1
15 | RQGTGSFYLMLEQLLVGARGP [20E2B-4-G11-IGFR] | 7.0 | 0.1

Continued, values first:

Row | Comparisons IGF-1R/IR (IGF-1R) | Comparisons IR/IGF-1R (IR) | Substance
16 | 14.2 | 0.1 | RCEEKQAEVGPSSDPFYHKMSELLGCR [Peptide B6Hα-3-E9-IR]
17 | 2.9 | 0.3 | RCGDEEGWQENRRDDPFYHKLSELFGGC [Peptide B6Hα-3-E5-IR]
18 | 11.0 | 0.1 | RCGRW*AEMGAGDDPFYHKLSELVCG (RCGRWXAEMGAGDDPFYHKLSELVCG; not fully specified; X: residue not identified in the source; cysteine pairing not given here) [Peptide B6Hα-2-C4-IR]
19 | 4.9 | 0.2 | RFDPFYSYFVNLLGASA [NNRPγ-4-A7-IR]
20 | 3.0 | 0.3 | RGAVAGFHDQFYDWFDRQVSRVHKFG [H2CA-4-H9-IGFR]
21 | 6.7 | 0.1 | RGIVAMVEATEVGSDHPFYHKLSELVQGS [Peptide B6Hα-2-C7-IR]
22 | 4.8 | 0.2 | RGKTAAVIVGRPADPFYHKLSELLQGG [Peptide B6Hα-3-E8-IR]
23 | 17.3 | 0.1 | RGQSDAFYSGLWALIGLSDG [Peptide R20β-4-A6-IR]
24 | 16.6 | 0.1 | RLFYCGIQALGANLGYSGCV [R20α-4-20A12-IR]
